Read-outs that look alike come from different tables or passages of the source.
How the values were obtained:
ROCK2 = target: T1, ROCK2 (Homo sapiens, UniProt O75116); assay: Rho kinase inhibition assay (IMAP fluorescence polarization), ROCK2; type: biochemical;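 also: kinase reaction started with 10 µM ATP and run 60 min at room temperature, then phosphorylated substrate captured on IMAP beads for 30 min and fluorescence polarization read in mP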
T1 construct: purchased Upstate/Chemicon 14-451
Description: (§1) Following the pre-incubation, 10 μM ATP was added to initiate the reaction. After 60 minutes at room temperature, Molecular Devices IMAP™ binding solution was added to bind phosphorylated substrate. After 30 minutes of incubation in the presence of the IMAP™ beads, the fluorescence polarization was read and the ratio was reported as mP. IC50 values for compounds and EC50 values for ATP were calculated using the Prism software from Graphpad.

ROCK1 = target: T2, ROCK1 (Homo sapiens, UniProt Q13464); assay: Rho kinase inhibition assay (IMAP fluorescence polarization), ROCK1; type: biochemical;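 also: kinase reaction run 60 min at room temperature, then phosphorylated substrate captured on IMAP beads for 30 min, with fluorescence polarization read in mP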
T2 construct: purchased Upstate/Chemicon 14-601
Description: as §1

human neutrophils = assay: Human neutrophil chemotaxis induced by fMLP (modified Boyden chamber); type: cell-based; details: Neutrophil, 1 h, 1 μM fMLP challenge, one hour, read-out: Chemotaxis Avg. IC50
Text: This assay is an in vitro assay of neutrophil chemotaxis that can be used to evaluate the ability of Rho Kinase inhibitor compounds of Formula I or II to inhibit the migration of human neutrophils, an inflammatory cell that has been implicated in the pathophysiology of allergic conjunctivitis.
Peripheral blood from healthy human volunteers was collected and the neutrophils were isolated by Ficoll-paque density centrifugation followed by dextran sedimentation and hypotonic lysis of the red blood cells. Neutrophil chemotaxis was assessed using a modified Boyden Chamber (Neuroprobe, 96-well) with a 3 μm pore polycarbonate membrane. The ability of the tested compounds to block chemotaxis induced by a 1 μM fMLP challenge during a one hour incubation at 37° C. with 5% CO2 was assessed in a dose response manner.

Akt3 human enzyme = target: T3, Akt3 human enzyme (Homo sapiens, UniProt Q9Y243); assay: Akt3 inhibition assay (IMAP FP); type: biochemical;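 also: kinase reaction run 60 min at room temperature after 30 µM ATP start, phosphorylated substrate captured on IMAP beads and read as fluorescence polarization (mP)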
T3 construct: purchased Upstate Chemicon 14-502

p70S6K human enzyme = target: T4, p70S6K human enzyme (Homo sapiens, UniProt P23443, T412E); assay: p70S6K inhibition assay (IMAP FP); type: biochemical;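 also: kinase reaction run at room temperature, phosphorylated substrate captured on IMAP beads and read as fluorescence polarization in mP, IC50 then converted to Ki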
T4 construct: purchased Upstate Chemicon 14-486
Description: Inhibition of Akt3 and p70S6K activity was determined using the IMAP™ FP Progressive Binding Kit (Molecular Devices product number R8127). […] Following the pre-incubation, 30 μM ATP was added to initiate the reaction. After 60 minutes at RT, Molecular Devices IMAP™ binding solution was added to bind phosphorylated substrate. After 30 minutes of incubation in the presence of the IMAP™ beads the fluorescence polarization was read and the ratio was reported as mP. IC50 results were calculated using the Prism software from Graphpad. The Ki values were determined according to the following formula: Ki=IC50/(1+([ATP Challenge]/EC50 ATP)).

[1] = Rat oral pharmacokinetics (plasma); type: in vivo; details: 20-30 μmol/kg; for Vz_F / AUC(0-t): mean n = 3; for AUC(0-t) / Cmax / Tmax / half-life: male, CD Sprague Dawley; for Cmax: mean n = 3, read-out: Cmax; for Tmax: mean n = 3, read-out: Tmax; for half-life: mean n = 3, read-out: t½ (converted)
Description: Plasma (EDTA K2 anticoagulant) was collected from male, cannulated, CD Sprague Dawley rats to determine the pharmacokinetics of formulations containing compound inhibitors of Rho kinase. Each animal was dosed orally with a 4 ml/kg solution or suspension of each test compound in 10 mM acetate buffered saline, pH 4.5 at a final concentration range of 20-30 μmol/kg. Blood was collected at 0.25, 0.5, 1, 2, 4, 6, 8, and 24 hours. Plasma samples were assayed for the concentration of the test compound using an on-line, solid phase extraction LC/MS/MS analysis system.
Samples were analyzed on a QSTAR Elite, hybrid quadrupole time-of-flight mass spectrometer (Applied Biosystems, Framingham, Mass.) coupled with a Symbiosis Pharma integrated, on-line SPE-HPLC system (Spark Holland Inc., Plainsboro, N.J.). Analyst QS 2.0 software was used for instrument control, data acquisition and processing. […] Mobile Phase A consisted of 0.1% ammonium hydroxide in water and Mobile Phase B consisted of 0.1% formic acid in acetonitrile. Pharmacokinetic analyses were performed using WinNonlin software version 5.2 (Pharsight Corporation, Mountain View, Calif.).
As determined from the plasma concentration versus time curves, the time to peak and peak exposure are represented by the values Tmax and Cmax, respectively. The AUC values (nM*hr) shown were calculated as the areas under the plasma concentration versus time curves from time zero through the time of the last observable value and represent the total exposure of the compound over the course of the study. Half-life values or the amount of time required for the plasma levels of the compound to decline to half the initial value are represented as t½.

[2] = system: A-10 rat thoracic aorta cells; assay: PDGF-stimulated smooth muscle cell proliferation assay (BrdU incorporation); type: cell-based; details: A-10 cells, 10 ng/mL PDGF, BrdU incorporation, percent of total challenge-stimulated proliferation; for Percent of PDGF Induced Proliferation at 1 μM Avg: 1 μM test compound; for Percent of PDGF Induced Proliferation at 10 μM Avg: 10 μM test compound;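 as to all read-outs here: cells kept in serum-free medium, BrdU allowed to incorporate for 24 h, then incorporated label detected fluorometrically with an anti-BrdU antibody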
Description: Effects on cell proliferation were measured using a bromodeoxyuridine (BrdU) incorporation assay. […] Serum free media containing 01% BSA was added to the cells. 24 hours later the media was removed and replaced with warmed serum free media. […] Proliferation was then monitored using the BrdU Cell Proliferation Assay, HTS (Calbiochem cat. #t HTS01). BrdU was allowed to incorporate into cells for 24 hours prior to the addition of fixative/denaturing solution and the fluorometric detection of incorporated BrdU using a BrdU antibody as per manufacturer's directions. Data are reported as a percent of the PDGF-stimulated BrdU incorporation.

[3] = Compound plasma concentrations in unsensitized mice at 15 min post administration; type: in vivo; details: mouse, 15 μmol/kg; mean compound plasma concentration in mice at 15 minutes post oral administration; read-out: Mouse Oral PK
Description: Additionally, compound concentrations were determined in the plasma and lungs of male, ovalbumin-sensitized, Balb/c mice from a murine model of asthma. Test compounds were formulated in water or 1% polysorbate 80 and dosed at 15 μmol/kg for intraperitoneal (IP) or oral (PO) administration or formulated for intratracheal (IT) administration and dosed at 5 μmol/kg, which directly targets the lungs. Following completion of the in vivo study, mice were euthanized and blood and plasma collected approximately 2.5-3 hours post administration of test compound for bronchodialator (BD) studies and 24 hours post administration for anti-inflamatory (AI) studies. Lungs were homogenized in Matrix A lysing tubes using a FastPrep 24 tissue and cell homogenizer (MP Biomedicals, Solon, Ohio). Both plasma samples and lung extracts were assayed for compound concentrations using an on-line, solid phase extraction LC/MS/MS system.

[4] = 10 μM ATP, read-out: ROCK2 Ki, Avg
[5] = 30 μM ATP, Ki=IC50/(1+([ATP Challenge]/EC50 ATP)), read-out: Akt3 Ki, Avg
[6] = 30 μM ATP, Ki=IC50/(1+([ATP Challenge]/EC50 ATP)), read-out: p70S6K Ki, Avg
[7] = average Ki, read-out: p70S6K Ki

T3 sequence (Q9Y243 whole entry): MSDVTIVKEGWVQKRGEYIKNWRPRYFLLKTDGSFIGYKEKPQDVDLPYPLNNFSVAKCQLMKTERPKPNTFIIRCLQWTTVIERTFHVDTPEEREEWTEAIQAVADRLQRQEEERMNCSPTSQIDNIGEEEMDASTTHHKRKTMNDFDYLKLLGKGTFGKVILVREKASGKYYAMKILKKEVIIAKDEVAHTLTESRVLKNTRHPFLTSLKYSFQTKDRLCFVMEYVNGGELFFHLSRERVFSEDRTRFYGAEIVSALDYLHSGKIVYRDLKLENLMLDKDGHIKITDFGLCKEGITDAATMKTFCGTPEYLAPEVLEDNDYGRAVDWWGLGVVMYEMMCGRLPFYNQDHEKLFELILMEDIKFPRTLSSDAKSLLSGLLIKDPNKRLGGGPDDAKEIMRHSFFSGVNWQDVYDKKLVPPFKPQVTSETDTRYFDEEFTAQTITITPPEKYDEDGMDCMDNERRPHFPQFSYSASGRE
T1 sequence (O75116 11-552 limits assumed): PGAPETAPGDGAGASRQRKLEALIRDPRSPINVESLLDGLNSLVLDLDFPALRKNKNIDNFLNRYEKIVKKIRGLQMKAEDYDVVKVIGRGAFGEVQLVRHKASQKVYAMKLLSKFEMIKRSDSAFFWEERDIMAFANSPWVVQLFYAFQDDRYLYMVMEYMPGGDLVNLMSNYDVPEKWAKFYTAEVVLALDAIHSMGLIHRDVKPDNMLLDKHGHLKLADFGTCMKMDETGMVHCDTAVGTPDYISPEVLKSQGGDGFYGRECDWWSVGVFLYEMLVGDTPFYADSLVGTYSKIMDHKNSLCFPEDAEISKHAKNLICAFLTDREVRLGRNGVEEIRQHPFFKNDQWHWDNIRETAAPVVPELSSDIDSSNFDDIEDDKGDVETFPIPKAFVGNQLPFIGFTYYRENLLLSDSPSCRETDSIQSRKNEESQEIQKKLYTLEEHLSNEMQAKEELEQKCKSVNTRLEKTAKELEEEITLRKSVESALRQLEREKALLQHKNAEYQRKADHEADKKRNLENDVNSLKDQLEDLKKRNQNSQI
T4 sequence (P23443 1-421 T412E limits assumed): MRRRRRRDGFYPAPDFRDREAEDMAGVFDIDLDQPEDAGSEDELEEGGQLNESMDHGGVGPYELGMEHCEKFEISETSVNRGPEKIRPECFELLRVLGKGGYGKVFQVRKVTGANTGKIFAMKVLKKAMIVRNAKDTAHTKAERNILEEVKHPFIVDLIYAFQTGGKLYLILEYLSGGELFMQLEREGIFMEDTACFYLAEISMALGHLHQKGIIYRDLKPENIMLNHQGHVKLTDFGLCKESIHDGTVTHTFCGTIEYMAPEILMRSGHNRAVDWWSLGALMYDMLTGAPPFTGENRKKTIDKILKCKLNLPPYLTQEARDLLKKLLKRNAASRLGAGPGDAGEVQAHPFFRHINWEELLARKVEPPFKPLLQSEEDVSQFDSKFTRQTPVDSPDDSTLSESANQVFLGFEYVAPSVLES
T2 sequence (Q13464 17-535 limits assumed): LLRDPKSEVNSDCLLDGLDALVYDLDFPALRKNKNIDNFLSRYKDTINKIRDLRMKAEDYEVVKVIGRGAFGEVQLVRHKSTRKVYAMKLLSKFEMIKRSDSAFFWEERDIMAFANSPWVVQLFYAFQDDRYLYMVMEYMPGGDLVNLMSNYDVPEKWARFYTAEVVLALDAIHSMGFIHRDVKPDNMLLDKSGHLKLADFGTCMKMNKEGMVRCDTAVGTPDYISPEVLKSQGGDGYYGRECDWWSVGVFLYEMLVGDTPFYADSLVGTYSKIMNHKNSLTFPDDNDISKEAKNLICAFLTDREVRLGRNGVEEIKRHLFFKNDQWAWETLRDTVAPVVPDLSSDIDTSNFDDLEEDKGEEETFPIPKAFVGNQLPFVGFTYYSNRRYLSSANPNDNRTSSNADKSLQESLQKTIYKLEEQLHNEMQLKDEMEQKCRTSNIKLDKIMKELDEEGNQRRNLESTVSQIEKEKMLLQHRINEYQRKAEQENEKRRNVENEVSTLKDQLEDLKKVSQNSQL

| Structure (SMILES) | Ki (ROCK2; [4]) [nM] | Ki (ROCK1; Avg, 10 μM ATP) [nM] | IC50 (human neutrophils) [nM] | Ki (Akt3 human enzyme; [5]) [nM] | Ki (p70S6K human enzyme; [6]) [nM] | Vz_F [1] [L/kg] | AUC(0-t) [1] [µM·h] | Cmax [1] [nM] | Tmax [1] [h] | half-life [1] [h] | Ki (Akt3 human enzyme; average Ki, read-out: Akt3 Ki) [nM] | Ki (p70S6K human enzyme; [7]) [nM] | Ki (ROCK2; average Ki, read-out: ROCK2 Ki) [nM] | Percent of PDGF Induced Proliferation at 1 μM Avg [2] [%] | Percent of PDGF Induced Proliferation at 10 μM Avg [2] [%] | concentration at 15 min [3] [nM] | Ki (ROCK1; average Ki) [nM] |
| --- | --- | --- | --- | --- | --- | --- | --- | --- | --- | --- | --- | --- | --- | --- | --- | --- | --- |
| CS(=O)(=O)Nc1cccc(CN2CCC(Nc3ccc4[nH]ncc4c3)C2)c1 (stereo not shown) [Compound 1.087, N-(3-((3-(1H-indazol-5-ylamino)pyrrolidin-1-yl)methyl)phenyl)methanesulfonamide] | 15.4 | 84.1 | 4500 | – | – | – | – | – | – | – | – | – | – | – | – | – | – |
| NC(=O)Cn1ccc2ccc(CN3CCC[C@H](Nc4ccc5[nH]ncc5c4)C3)cc21 [Compound 1.107, (S)-2-(6-((3-(1H-indazol-5-ylamino)piperidin-1-yl)methyl)-1H-indol-1-yl)acetamide] | 14 | 234 | – | 16300 | 3360 | 36.3 | 1.59 | 544 | 1.67 | 1.28 | – | – | – | – | – | – | – |
| OCCn1ccc2ccc(CN3CCC[C@@H](Nc4ccc5[nH]ncc5c4)C3)cc21 [Compound 1.108, (R)-2-(6-((3-(1H-indazol-5-ylamino)piperidin-1-yl)methyl)-1H-indol-1-yl)ethanol] | 6.5 | 25.6 | – | 205 | 511 | 116 | 0.415 | 209 | 0.83 | 1.36 | 205 | 511 | 6.5 | 83.1 | 43.7 | 395 | 25.6 |
| NS(=O)(=O)c1cccc(CN2CCC[C@H](Nc3ccc4[nH]ncc4c3)C2)c1 [Compound 1.215, (S)-3-((3-(1H-indazol-5-ylamino)piperidin-1-yl)methyl)benzenesulfonamide] | 3.5 | 103 | – | 14800 | 1290 | – | – | – | – | – | 4750 | 1290 | 3.5 | 70.8 | 54.0 | 2650 | 103 |
| CCCS(=O)(=O)Nc1cc(CN2CCC[C@H](Nc3ccc4[nH]ncc4c3)C2)ccc1C [Compound 1.238, (S)-N-(5-((3-(1H-indazol-5-ylamino)piperidin-1-yl)methyl)-2-methylphenyl)propane-1-sulfonamide] | 1.5 | 61.2 | – | 4170 | 2610 | – | – | – | – | – | 4170 | 2610 | 1.5 | 40.7 | 48.6 | 48 | 61.2 |
| Cc1ccc(S(=O)(=O)Nc2cc(CN3CCC[C@H](Nc4ccc5[nH]ncc5c4)C3)ccc2C)cc1 [Compound 1.239, (S)-N-(5-((3-(1H-indazol-5-ylamino)piperidin-1-yl)methyl)-2-methylphenyl)-4-methylbenzenesulfonamide] | 6.3 | 283 | – | 17700 | 10000 | – | – | – | – | – | 17700 | 10000 | 6.3 | 41.7 | 37.8 | 259 | 283 |
| CCS(=O)(=O)Nc1cc(CN2CCC[C@H](Nc3ccc4[nH]ncc4c3)C2)ccc1C [Compound 1.253, (S)-N-(5-((3-(1H-indazol-5-ylamino)piperidin-1-yl)methyl)-2-methylphenyl)ethanesulfonamide] | 1.7 | 59.9 | – | 2600 | 2510 | – | – | – | – | – | 2600 | 2510 | 1.7 | 44.8 | 47.9 | 240 | 59.9 |
| C#Cc1ccc(CN2CC[C@@H](Nc3cccc4cnccc34)C2)cc1 [Compound 2.031, (R)-N-(1-(4-ethynylbenzyl)pyrrolidin-3-yl)isoquinolin-5-amine] | 5.3 | 14.6 | – | 1360 | 326 | – | – | – | – | – | 1360 | 326 | 5.3 | 90.3 | 52.6 | 1430 | 14.6 |
| OCCOc1cccc(CN2CCC[C@@H](Nc3cccc4cnccc34)C2)c1 [Compound 2.034, (R)-2-(3-((3-(isoquinolin-5-ylamino)piperidin-1-yl)methyl)phenoxy)ethanol] | 221 | 1000 | 4730 | – | – | – | – | – | – | – | – | – | – | – | – | – | – |
| CCS(=O)(=O)Nc1cccc(CN2CC[C@@H](Nc3cccc4cnccc34)C2)c1 [Compound 2.041, (R)-N-(3-((3-(isoquinolin-5-ylamino)pyrrolidin-1-yl)methyl)phenyl)ethanesulfonamide] | 9.6 | 30.8 | – | 3440 | 2100 | – | – | – | – | – | 3440 | 2100 | 9.6 | 81.8 | 61.5 | 987 | 30.8 |
| Cc1ccc(CN2CCC[C@H](Nc3cccc4cnccc34)C2)cc1 [Compound 2.045, (S)-N-(1-(4-methylbenzyl)piperidin-3-yl)isoquinolin-5-amine] | 88 | 90.6 | – | – | – | 226 | 0.456 | 223 | 0.67 | 1.59 | – | – | – | – | – | – | – |
| c1ccc(CN2CC[C@@H](Nc3cccc4cnccc34)C2)cc1 [Compound 2.046, (R)-N-(1-benzylpyrrolidin-3-yl)isoquinolin-5-amine] | 5.6 | 16.7 | – | 1980 | 759 | – | – | – | – | – | 1980 | 759 | 5.6 | 57.4 | 32.1 | 488 | 16.7 |
| COc1ccc(CN2CC[C@@H](Nc3cccc4cnccc34)C2)cc1 [Compound 2.047, (R)-N-(1-(4-methoxybenzyl)pyrrolidin-3-yl)isoquinolin-5-amine] | 7 | 26.4 | – | 1940 | 437 | – | – | – | – | – | 1940 | 437 | 7 | 65.3 | 53.8 | 3 | 26.4 |
| CCS(=O)(=O)Nc1cc(CN2CC[C@@H](Nc3cccc4cnccc34)C2)ccc1C [Compound 2.054, (R)-N-(5-((3-(isoquinolin-5-ylamino)pyrrolidin-1-yl)methyl)-2-methylphenyl)ethanesulfonamide] | 3.7 | 17.1 | – | 415 | 439 | – | – | – | – | – | 415 | 439 | 3.7 | 68.2 | 84.6 | 765 | 17.1 |
| C[C@@H](N)c1ccc(C(=O)Nc2ccnc3[nH]ccc23)cc1 [Compound Y-39983, reference compound] | – | – | 1390 | – | – | – | – | – | – | – | – | – | – | – | – | – | – |
| O=S(=O)(c1cccc2cnccc12)N1CCCNCC1 [fasudil, reference compound] | – | – | 23800 | – | – | – | – | – | – | – | – | – | – | – | – | – | – |

From patent US20090325959A1 (priority 2008, published 2009)
